What was measured:
[1] = target: T1, GST tagged PIP4KtypeIIA (Homo sapiens, UniProt P48426); experiment: ADP-glo kinase assay PIP4K 2A (PIP4KtypeIIA inhibition assay); assay type: biochemical; settings: Table 3; compounds listed under IC50 range headings; 10 uM ATP, 0.5 nM PIP4KIIA
T1 construct: made in house; host or cells: E. coli
T1 sequence (P48426 1-406): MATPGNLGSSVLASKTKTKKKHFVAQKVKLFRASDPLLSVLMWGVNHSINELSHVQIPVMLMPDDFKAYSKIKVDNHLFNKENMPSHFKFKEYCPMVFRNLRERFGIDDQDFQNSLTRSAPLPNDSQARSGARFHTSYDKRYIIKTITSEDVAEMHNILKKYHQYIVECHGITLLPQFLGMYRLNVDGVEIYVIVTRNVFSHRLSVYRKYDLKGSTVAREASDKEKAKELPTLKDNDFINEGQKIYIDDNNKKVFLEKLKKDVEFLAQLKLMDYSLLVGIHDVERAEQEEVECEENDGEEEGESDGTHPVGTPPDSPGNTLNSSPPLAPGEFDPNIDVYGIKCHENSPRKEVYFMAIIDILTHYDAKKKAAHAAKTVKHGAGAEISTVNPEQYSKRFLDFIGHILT
In short: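 Read-out was ADP-Glo luminescence converted to μM ADP, with IC50 plotted as % of no-inhibitor activity against log concentration. Reactions contained 10 μM ATP, 80 μM PI5P with DOPE carrier, and 0.5 nM GST-tagged PIP4KIIA (E. coli-expressed) in pH 7.3 HEPES/MgCl2 buffer with 5% DMSO. Enzyme and compound (≤4.8 μM) were preincubated 1 h at 27 °C before the 1 h reaction.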

[2] = target: T2, PIP4K2A (full length protein, SignalChem) (Homo sapiens, UniProt P48426); experiment: Kinase Assay PIP4K2 A (Sprint); ADP-Glo biochemical assay; settings: Table 2; compounds listed under IC50 range headings
T2 construct: 4 nM PIP4K2A (full length protein, SignalChem); purchased SignalChem
T2 sequence (P48426 1-406): T1 sequence (P48426 1-406)
In short: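 ADP-Glo luminescence detected ADP after a 1 h RT reaction started with 60 μM ATP solution. Before that, full-length PIP4K2A (4 nM in mix) with 100 μM PI(5)P diC8 was pre-incubated 15 min with compounds in MOPS buffer pH 7.2, 25 mM MgCl2, 0.005% Tween 20. IC50 derived from % inhibition relative to DMSO over 10 three-fold concentrations.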

[3] = target: T3, GST tagged PIP4KtypeIIB (Homo sapiens, UniProt P78356); experiment: Trans-FI P kinase assay PIP4K2B (PIP4KtypeIIB inhibition assay); assay type: biochemical; settings: Table 4; compounds listed under IC50 range headings; 100 uM GTP, 5 nM PIP4KIIB; read-out: Trans-FI P kinase assays: PIP4K2B IC50
T3 construct: made in house; host or cells: E. coli
T3 sequence (P78356 1-416): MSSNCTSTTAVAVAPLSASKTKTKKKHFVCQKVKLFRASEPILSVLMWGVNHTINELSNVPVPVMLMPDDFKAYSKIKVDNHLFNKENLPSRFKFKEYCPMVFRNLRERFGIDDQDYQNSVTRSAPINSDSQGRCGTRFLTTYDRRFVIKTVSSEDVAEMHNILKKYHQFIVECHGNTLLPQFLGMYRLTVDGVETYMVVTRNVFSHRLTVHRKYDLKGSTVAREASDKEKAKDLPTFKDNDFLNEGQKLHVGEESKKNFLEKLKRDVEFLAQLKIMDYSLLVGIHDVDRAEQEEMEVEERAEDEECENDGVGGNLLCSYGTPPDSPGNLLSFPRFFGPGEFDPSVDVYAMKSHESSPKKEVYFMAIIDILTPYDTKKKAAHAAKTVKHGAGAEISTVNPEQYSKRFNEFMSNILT
In short: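 Transcreener FI fluorescence, converted to GDP by calibration, tracked product from 5 nM E. coli-expressed GST-PIP4KIIB acting on 80 uM PI5P (DOPE carrier) with 100 uM GTP. Compound (top 4.8 uM final, 5% DMSO) was preincubated 1 h at 27 C before the 2 h reaction; IC50 fitted from residual activity.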

Row | SMILES | IC50 [1] [µM] | IC50 [2] [µM] | IC50 [3] [µM]
1 | CN(C)C(=O)c1ccc(-c2cc(-c3ccnc4nc[nH]c34)cnc2N)nc1 [Example 213, 2′-amino-5′-(1H-imidazo[4,5-b]pyridin-7-yl)-N,N-dimethyl-[2,3′-bipyridine]-5-carboxamide] | 2.5 to 5 | 0.1 to 1 | 1 to 2.5
2 | CN(C)C(=O)c1ccc(-c2cncc(-c3cnc4[nH]ccc4c3)c2)cc1 [Example 4, 4-(5-(1H-pyrrolo[2,3-b]pyridin-5-yl)pyridin-3-yl)-N,N-dimethylbenzamide] | 2.5 to 5 | 0.1 to 1 | 2.5 to 5
3 | CN(C)C(=O)c1ccc(-c2cc(-c3ccnc4[nH]c(C(=O)NCC(F)(F)F)cc34)cnc2N)nc1 [Example 138, 4-(2′-amino-5-(dimethylcarbamoyl)-[2,3′-bipyridin]-5′-yl)-N-(2,2,2-trifluoroethyl)-1H-pyrrolo[2,3-b]pyridine-2-carboxamide] | 0.1 to 1 | 0.1 to 1 | 0.01 to 0.1
4 | O=C1CCCN1c1ccc(-c2cncc(-c3c(OC4CCCNC4)cnc4[nH]ccc34)c2)cc1 (stereo not drawn) [Example 66, 1-(4-(5-(5-(piperidin-3-yloxy)-1H-pyrrolo[2,3-b]pyridin-4-yl)pyridin-3-yl)phenyl)pyrrolidin-2-one] | > 5 | < 5 | > 5
5 | CN(C)C(=O)c1ccc(-c2cc(-c3ccnc4[nH]c(=O)[nH]c34)cnc2N)nc1 [Example 113, 2′-amino-N,N-dimethyl-5′-(2-oxo-2,3-dihydro-1H-imidazo[4,5-b]pyridin-7-yl)-[2,3′-bipyridine]-5-carboxamide] | 0.1 to 1 | 0.005 to 0.1 | 0.1 to 1
6 | CN1CCn2c(cc3c(-c4cncc(-c5ccc(N6CCCCCC6=O)cc5)c4)ccnc32)C1=O [Example 345, 7-methyl-4-(5-(4-(2-oxoazepan-1-yl)phenyl)pyridin-3-yl)-8,9-dihydropyrido[3′,2′:4,5]pyrrolo[1,2-a]pyrazin-6(7H)-one] | 0.1 to 1 | 0.1 to 1 | 0.01 to 0.1
7 | CN(C)C(=O)c1ccc(-c2cncc(-c3c[nH]c4ncc(Cl)cc34)c2)cc1 [Example 12, 4-(5-(5-chloro-1H-pyrrolo[2,3-b]pyridin-3-yl)pyridin-3-yl)-N,N-dimethylbenzamide] | 0.1 to 1 | 0.005 to 0.1 | 0.1 to 1
8 | Nc1ncc(Br)cc1-c1ccc(N2CCCC2=O)cn1 [Example 22, 1-(2′-amino-5′-bromo-[2,3′-bipyridin]-5-yl)pyrrolidin-2-one] | > 5 | < 5 | > 5
9 | CN(C)C(=O)c1ccc(-c2cc(-c3ccnc4[nH]c(C(=O)NCc5cccnc5)cc34)cnc2N)nc1 [Example 136, 4-(2′-amino-5-(dimethylcarbamoyl)-[2,3′-bipyridin]-5′-yl)-N-(pyridin-3-ylmethyl)-1H-pyrrolo[2,3-b]pyridine-2-carboxamide] | 0.1 to 1 | 0.005 to 0.1 | 0.01 to 0.1
10 | CN(C)C(=O)c1ccc(-c2cc(-c3ccnc4[nH]c(C(=O)N5CC(O)C5)cc34)cnc2N)nc1 [Example 129, 2′-amino-5′-(2-(3-hydroxyazetidine-1-carbonyl)-1H-pyrrolo[2,3-b]pyridin-4-yl)-N,N-dimethyl-[2,3′-bipyridine]-5-carboxamide] | 0.1 to 1 | 0.1 to 1 | 0.1 to 1
11 | CN(C)C(=O)c1ccc(-c2cc(-c3cnc4c(c3)c(-c3cncnc3)nn4C)cnc2N)nc1 [Example 124, 2′-amino-N,N-dimethyl-5′-(1-methyl-3-(pyrimidin-5-yl)-1H-pyrazolo[3,4-b]pyridin-5-yl)-[2,3′-bipyridine]-5-carboxamide] | > 5 | 1 to 2.5 | > 5
12 | CN(CC1CCNCC1)C(=O)c1ccc(-c2cncc(-c3ccncc3)c2)cc1 [Example 179, 4-([3,4′-bipyridin]-5-yl)-N-methyl-N-(piperidin-4-ylmethyl)benzamide] | > 5 | < 5 | > 5
13 | O=C(NCc1ccc2c(c1)COB2O)c1cc2c(-c3cncc(-c4ccc(N5CCCC5=O)cc4)c3)ccnc2[nH]1 [Example 276, N-((1-hydroxy-1,3-dihydrobenzo[c][1,2]oxaborol-5-yl)methyl)-4-(5-(4-(2-oxopyrrolidin-1-yl)phenyl)pyridin-3-yl)-1H-pyrrolo[2,3-b]pyridine-2-carboxamide] | 0.1 to 1 | 0.005 to 0.1 | 0.01 to 0.1

Second part, the compound after the results:

Row | IC50 [1] [µM] | IC50 [2] [µM] | IC50 [3] [µM] | SMILES
14 | 1 to 2.5 | 0.1 to 1 | 0.1 to 1 | CCOc1cnc2[nH]ccc2c1-c1cncc(-c2ccc(N3CCCC3=O)cc2)c1 [Example 59, 1-(4-(5-(5-ethoxy-1H-pyrrolo[2,3-b]pyridin-4-yl)pyridin-3-yl)phenyl)pyrrolidin-2-one]
15 | 0.01 to 0.1 | 0.005 to 0.1 | 0.1 to 1 | Cc1cnc2[nH]cc(-c3cncc(-c4ccc(N5CCCC5=O)cc4)c3)c2c1 [Example 31, 1-(4-(5-(5-methyl-1H-pyrrolo[2,3-b]pyridin-3-yl)pyridin-3-yl)phenyl)pyrrolidin-2-one]
16 | 0.01 to 0.1 | 0.005 to 0.1 | 0.01 to 0.1 | O=C1CCCN1c1ccc(-c2cncc(-c3cc(Cl)nc4n[nH]cc34)c2)cc1 [Example 224, 1-(4-(5-(6-chloro-2H-pyrazolo[3,4-b]pyridin-4-yl)pyridin-3-yl)phenyl)pyrrolidin-2-one]
17 | 0.1 to 1 | 0.005 to 0.1 | 0.1 to 1 | O=C1CCCN1c1ccc(-c2cncc(-c3c[nH]c4ncc(Cl)cc34)c2)cc1 [Example 27, 1-(4-(5-(5-chloro-1H-pyrrolo[2,3-b]pyridin-3-yl)pyridin-3-yl)phenyl)pyrrolidin-2-one]
18 | 0.01 to 0.1 | 0.005 to 0.1 | 0.01 to 0.1 | CNC(=O)c1cc2c(-c3cncc(-c4ccc(N5CCCC5=O)cc4)c3)ccnc2o1 [Example 49, N-methyl-4-(5-(4-(2-oxopyrrolidin-1-yl)phenyl)pyridin-3-yl)furo[2,3-b]pyridine-2-carboxamide]
19 | 0.1 to 1 | 0.1 to 1 | 0.1 to 1 | O=C1CCCN1c1ccc(-c2cncc(-c3ccnc4cn[nH]c34)c2)cc1 [Example 220, 1-(4-(5-(2H-pyrazolo[4,3-b]pyridin-7-yl)pyridin-3-yl)phenyl)pyrrolidin-2-one]
20 | 0.1 to 1 | 0.005 to 0.1 | 0.1 to 1 | O=C1CCCN1c1ccc(-c2cncc(-c3c[nH]c4ncncc34)c2)cc1 [Example 30, 1-(4-(5-(7H-pyrrolo[2,3-d]pyrimidin-5-yl)pyridin-3-yl)phenyl)pyrrolidin-2-one]
21 | 0.1 to 1 | 0.005 to 0.1 | 0.1 to 1 | Cn1cc(-c2cncc(-c3ccc(N4CCCC4=O)cc3)c2)c2cc(N3CCCC3=O)cnc21 [Example 77, 1-(1-methyl-3-(5-(4-(2-oxopyrrolidin-1-yl)phenyl)pyridin-3-yl)-1H-pyrrolo[2,3-b]pyridin-5-yl)pyrrolidin-2-one]
22 | 0.1 to 1 | 0.1 to 1 | 0.1 to 1 | Cn1ncc2c(-c3cncc(-c4ccc(N5CCCC5=O)cc4)c3)cn(CC#N)c(=O)c21 [Example 160, 2-(1-methyl-7-oxo-4-(5-(4-(2-oxopyrrolidin-1-yl)phenyl)pyridin-3-yl)-1,7-dihydro-6H-pyrazolo[3,4-c]pyridin-6-yl)acetonitrile]
23 | 0.1 to 1 | 0.005 to 0.1 | 0.1 to 1 | COc1cnc2[nH]ccc2c1-c1cncc(-c2ccc(N3CCCC3=O)cc2)c1 [Example 34, 1-(4-(5-(5-methoxy-1H-pyrrolo[2,3-b]pyridin-4-yl)pyridin-3-yl)phenyl)pyrrolidin-2-one]

— patent US11919902B2, “Aryl-bipyridine amine derivatives as phosphatidylinositol phosphate kinase inhibitors” (HiberCell, Inc., priority 2017, dated 2024)
